# Laboratory results taken from ChEMBL document CHEMBL4138123, “Design, synthesis and biological evaluation of novel pyrazolochalcones as potential modulators of PI3K/Akt/mTOR pathway and inducers of apoptosis in breast cancer cells” (Eur J Med Chem, 2017).
# Assays:
# Type in all cases: functional
# MCF7 = test: Cytotoxicity against human MCF7 cells assessed as cell growth at 10 uM after 48 hrs by sulforhodamine B assay relative to control; settings: MCF7, 48 h, read-out: Activity
# MDA-MB-468 [1] = test: Cytotoxicity against human MDA-MB-468 cells assessed as cell growth at 10 uM after 48 hrs by sulforhodamine B assay relative to control; settings: MDA-MB-468, 48 h, read-out: Activity
# SF-539 [2] = test: Cytotoxicity against human SF539 cells assessed as cell growth at 0.1 uM after 48 hrs by sulforhodamine B assay relative to control; settings: SF-539, 48 h, read-out: Activity
# UACC-257 = test: Cytotoxicity against human UACC257 cells assessed as cell growth at 1 uM after 48 hrs by sulforhodamine B assay relative to control; settings: UACC-257, 48 h, read-out: Activity
# SF-539 [3] = test: Cytotoxicity against human SF539 cells assessed as cell growth at 1 uM after 48 hrs by sulforhodamine B assay relative to control; settings: SF-539, 48 h, read-out: Activity
# M14 = test: Cytotoxicity against human M14 cells assessed as growth inhibition after 48 hrs by sulforhodamine B assay; settings: M14, 48 h
# DU-145 [4] = test: Cytotoxicity against human DU145 cells assessed as cell growth at 0.01 uM after 48 hrs by sulforhodamine B assay relative to control; settings: DU-145, 48 h, read-out: Activity
# NCI-H23 = test: Cytotoxicity against human NCI-H23 cells assessed as cell growth at 0.1 uM after 48 hrs by sulforhodamine B assay relative to control; settings: NCI-H23, 48 h, read-out: Activity
# SK-MEL-28 = test: Cytotoxicity against human SK-MEL-28 cells assessed as cell growth at 1 uM after 48 hrs by sulforhodamine B assay relative to control; settings: SK-MEL-28, 48 h, read-out: Activity
# SK-MEL-5 = test: Cytotoxicity against human SK-MEL-5 cells assessed as cell growth at 100 uM after 48 hrs by sulforhodamine B assay relative to control; settings: SK-MEL-5, 48 h, read-out: Activity
# CCRF-CEM [5] = test: Cytotoxicity against human CCRF-CEM cells assessed as cell growth at 1 uM after 48 hrs by sulforhodamine B assay relative to control; settings: read-out: Activity
# PC-3 [6] = test: Cytotoxicity against human PC3 cells assessed as cell growth at 100 uM after 48 hrs by sulforhodamine B assay relative to control; settings: PC-3, 48 h, read-out: Activity
# MDA-MB-468 [7] = test: Cytotoxicity against human MDA-MB-468 cells assessed as growth inhibition after 48 hrs by sulforhodamine B assay; settings: MDA-MB-468, 48 h
# OVCAR-4 [8] = test: Cytotoxicity against human OVCAR4 cells assessed as cell growth at 0.1 uM after 48 hrs by sulforhodamine B assay relative to control; settings: OVCAR-4, 48 h, read-out: Activity
# SW-620 = test: Cytotoxicity against human SW620 cells assessed as cell growth at 0.1 uM after 48 hrs by sulforhodamine B assay relative to control; settings: SW-620, 48 h, read-out: Activity
# CCRF-CEM [9] = test: Cytotoxicity against human CCRF-CEM cells assessed as cell growth at 0.1 uM after 48 hrs by sulforhodamine B assay relative to control; settings: read-out: Activity
# DU-145 [10] = test: Cytotoxicity against human DU145 cells assessed as cell growth at 1 uM after 48 hrs by sulforhodamine B assay relative to control; settings: DU-145, 48 h, read-out: Activity
# OVCAR-3 = test: Cytotoxicity against human OVCAR3 cells assessed as cell growth at 10 uM after 48 hrs by sulforhodamine B assay relative to control; settings: OVCAR-3, 48 h, read-out: Activity
# NCI/ADR-RES [11] = test: Cytotoxicity against human NCI/ADR-RES cells assessed as cell growth at 1 uM after 48 hrs by sulforhodamine B assay relative to control; settings: read-out: Activity
# MDA-MB-435 [12] = test: Cytotoxicity against human MDA-MB-435 cells assessed as cell growth at 0.01 uM after 48 hrs by sulforhodamine B assay relative to control; settings: MDA-MB-435, 48 h, read-out: Activity
# Hs-578T = test: Cytotoxicity against human Hs 578T cells assessed as cell growth at 0.1 uM after 48 hrs by sulforhodamine B assay relative to control; settings: read-out: Activity
# U-251 [13] = test: Cytotoxicity against human U251 cells assessed as cell growth at 10 uM after 48 hrs by sulforhodamine B assay relative to control; settings: U-251, 48 h, read-out: Activity
# PC-3 [14] = test: Cytotoxicity against human PC3 cells assessed as cell growth at 0.01 uM after 48 hrs by sulforhodamine B assay relative to control; settings: PC-3, 48 h, read-out: Activity
# LOX IMVI = test: Cytotoxicity against human LOXIMVI cells assessed as growth inhibition after 48 hrs by sulforhodamine B assay
# U-251 [15] = test: Cytotoxicity against human U251 cells assessed as cell growth at 1 uM after 48 hrs by sulforhodamine B assay relative to control; settings: U-251, 48 h, read-out: Activity
# NCI-H226 [16] = test: Cytotoxicity against human NCI-H226 cells assessed as cell growth at 10 uM after 48 hrs by sulforhodamine B assay relative to control; settings: NCI-H226, 48 h, read-out: Activity
# SR = test: Cytotoxicity against human SR cells assessed as cell growth at 0.01 uM after 48 hrs by sulforhodamine B assay relative to control; settings: read-out: Activity
# OVCAR-8 = test: Cytotoxicity against human OVCAR8 cells assessed as cell growth at 1 uM after 48 hrs by sulforhodamine B assay relative to control; settings: OVCAR-8, 48 h, read-out: Activity
# NCI/ADR-RES [17] = test: Cytotoxicity against human NCI/ADR-RES cells assessed as cell growth at 0.1 uM after 48 hrs by sulforhodamine B assay relative to control; settings: read-out: Activity
# COLO 205 = test: Cytotoxicity against human COLO205 cells assessed as cell growth at 0.1 uM after 48 hrs by sulforhodamine B assay relative to control; settings: COLO 205, 48 h, read-out: Activity
# NCI-H226 [18] = test: Cytotoxicity against human NCI-H226 cells assessed as cell growth at 0.01 uM after 48 hrs by sulforhodamine B assay relative to control; settings: NCI-H226, 48 h, read-out: Activity
# HCT-15 = test: Cytotoxicity against human HCT15 cells assessed as cell growth at 10 uM after 48 hrs by sulforhodamine B assay relative to control; settings: HCT-15, 48 h, read-out: Activity
# OVCAR-4 [19] = test: Cytotoxicity against human OVCAR4 cells assessed as cell growth at 100 uM after 48 hrs by sulforhodamine B assay relative to control; settings: OVCAR-4, 48 h, read-out: Activity
# HT-29 = test: Cytotoxicity against human HT-29 cells assessed as cell growth at 0.1 uM after 48 hrs by sulforhodamine B assay relative to control; settings: HT-29, 48 h, read-out: Activity
# MDA-MB-435 [20] = test: Cytotoxicity against human MDA-MB-435 cells assessed as cell growth at 1 uM after 48 hrs by sulforhodamine B assay relative to control; settings: MDA-MB-435, 48 h, read-out: Activity
# SF-539 [21] = test: Cytotoxicity against human SF539 cells assessed as cell growth at 100 uM after 48 hrs by sulforhodamine B assay relative to control; settings: SF-539, 48 h, read-out: Activity
Structure (SMILES),growth at 10 µM (MCF7) [%],growth at 10 µM (MDA-MB-468 [1]) [%],growth at 0.1 µM (SF-539 [2]) [%],growth at 1 µM (UACC-257) [%],growth at 1 µM (SF-539 [3]) [%],TGI (M14) [nM],growth at 0.01 µM (DU-145 [4]) [%],growth at 0.1 µM (NCI-H23) [%],growth at 1 µM (SK-MEL-28) [%],growth at 100 µM (SK-MEL-5) [%],growth at 1 µM (CCRF-CEM [5]) [%],growth at 100 µM (PC-3 [6]) [%],GI50 (MDA-MB-468 [7]) [nM],TGI (MDA-MB-468 [7]) [nM],growth at 0.1 µM (OVCAR-4 [8]) [%],growth at 0.1 µM (SW-620) [%],growth at 0.1 µM (CCRF-CEM [9]) [%],growth at 1 µM (DU-145 [10]) [%],growth at 10 µM (OVCAR-3) [%],growth at 1 µM (NCI/ADR-RES [11]) [%],other results
COc1ccc(C(=O)/C=C/c2cc(-c3ccc(OC)c(OC)c3)n[nH]2)cc1OC,-5,-80,89,96,35,4110,106,103,81,-96,15,-4,1090,2550,86,95,94,73,-43,89,GI50 (M14): 1910 nM; growth at 0.01 µM (MDA-MB-435 [12]): 89%; growth at 0.1 µM (Hs-578T): 91%; growth at 10 µM (U-251 [13]): -85%; growth at 0.01 µM (PC-3 [14]): 99%; GI50 (LOX IMVI): 1290 nM; TGI (LOX IMVI): 2700 nM; growth at 1 µM (U-251 [15]): 62%; growth at 10 µM (NCI-H226 [16]): -46%; growth at 0.01 µM (SR): 94%; growth at 1 µM (OVCAR-8): 80%; growth at 0.1 µM (NCI/ADR-RES [17]): 102%; growth at 0.1 µM (COLO 205): 98%; growth at 0.01 µM (NCI-H226 [18]): 94%; growth at 10 µM (HCT-15): -19%; growth at 100 µM (OVCAR-4 [19]): -40%; growth at 0.1 µM (HT-29): 96%; growth at 1 µM (MDA-MB-435 [20]): 87%; growth at 100 µM (SF-539 [21]): -83%
COc1ccc(C(=O)/C=C/c2cc(-c3cc(OC)c(OC)c(OC)c3)n[nH]2)cc1OC,-76,-87,98,81,67,3690,104,94,96,-92,39,-95,750,2180,96,99,94,32,-91,90,LC50 (concentration killing 50% of cells) (M14): 7380 nM; LC50 (MDA-MB-468 [7]): 5210 nM; growth at 0.01 µM (MDA-MB-435 [12]): 95%; growth at 0.1 µM (Hs-578T): 99%; growth at 10 µM (U-251 [13]): -100%; growth at 0.01 µM (PC-3 [14]): 96%; LC50 (LOX IMVI): 5530 nM; TGI (LOX IMVI): 2760 nM; growth at 1 µM (U-251 [15]): 65%; growth at 10 µM (NCI-H226 [16]): -81%; growth at 0.01 µM (SR): 100%; growth at 1 µM (OVCAR-8): 69%; growth at 0.1 µM (NCI/ADR-RES [17]): 95%; growth at 0.1 µM (COLO 205): 106%; growth at 0.01 µM (NCI-H226 [18]): 98%; growth at 10 µM (HCT-15): -78%; growth at 100 µM (OVCAR-4 [19]): -82%; growth at 0.1 µM (HT-29): 105%; growth at 1 µM (MDA-MB-435 [20]): 70%; growth at 100 µM (SF-539 [21]): -96%
